Measurements published in BindingDB's records for PubMed 33129590 (Key Laboratory of Technology of Drug Preparation (Zhengzhou …, 2021).

Assays:
[1] = biological target: Prostaglandin G/H synthase 2 (Homo sapiens) (UniProt P35354); assay: Inhibition of COX-2 (unknown origin)
[2] = biological target: Prostaglandin G/H synthase 1 (Homo sapiens) (UniProt P23219); assay: Inhibition of COX-1 (unknown origin)
[3] = biological target: Poly [ADP-ribose] polymerase 1 (Homo sapiens, UniProt P09874); assay: Displacement of [125I]KX1 from PARP1 in human OVCAR-8 cells incubated for 1 hr by wizard gamma counter analysis
Sequence of Poly [ADP-ribose] polymerase 1 (P09874 whole entry): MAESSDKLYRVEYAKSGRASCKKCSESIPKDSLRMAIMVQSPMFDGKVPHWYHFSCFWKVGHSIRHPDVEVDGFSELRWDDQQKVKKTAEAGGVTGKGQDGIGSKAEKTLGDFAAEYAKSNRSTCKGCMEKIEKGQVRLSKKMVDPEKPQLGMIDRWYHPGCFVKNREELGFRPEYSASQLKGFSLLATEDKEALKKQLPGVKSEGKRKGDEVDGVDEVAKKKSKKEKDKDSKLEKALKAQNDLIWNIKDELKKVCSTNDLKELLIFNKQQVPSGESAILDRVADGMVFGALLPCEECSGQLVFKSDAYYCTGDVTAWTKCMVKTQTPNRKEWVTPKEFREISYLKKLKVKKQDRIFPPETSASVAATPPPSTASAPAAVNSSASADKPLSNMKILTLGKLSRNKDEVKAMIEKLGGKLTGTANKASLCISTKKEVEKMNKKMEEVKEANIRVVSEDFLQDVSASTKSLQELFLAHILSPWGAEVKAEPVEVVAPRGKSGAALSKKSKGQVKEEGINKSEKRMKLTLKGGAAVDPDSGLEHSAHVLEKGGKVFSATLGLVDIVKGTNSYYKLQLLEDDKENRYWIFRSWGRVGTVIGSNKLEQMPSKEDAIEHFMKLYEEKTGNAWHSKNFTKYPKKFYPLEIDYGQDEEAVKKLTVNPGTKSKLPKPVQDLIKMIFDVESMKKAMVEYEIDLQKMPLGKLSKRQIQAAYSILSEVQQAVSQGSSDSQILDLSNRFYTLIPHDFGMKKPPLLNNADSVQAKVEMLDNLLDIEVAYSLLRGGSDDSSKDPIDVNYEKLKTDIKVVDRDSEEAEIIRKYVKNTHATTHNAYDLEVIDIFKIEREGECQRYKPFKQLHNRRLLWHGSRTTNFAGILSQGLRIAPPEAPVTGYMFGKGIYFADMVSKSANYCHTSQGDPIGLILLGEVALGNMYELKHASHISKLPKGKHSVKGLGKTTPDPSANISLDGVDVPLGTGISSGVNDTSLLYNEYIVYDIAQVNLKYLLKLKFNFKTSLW

Sequence of Prostaglandin G/H synthase 2 (Homo sapiens) (P35354 whole entry, looked up): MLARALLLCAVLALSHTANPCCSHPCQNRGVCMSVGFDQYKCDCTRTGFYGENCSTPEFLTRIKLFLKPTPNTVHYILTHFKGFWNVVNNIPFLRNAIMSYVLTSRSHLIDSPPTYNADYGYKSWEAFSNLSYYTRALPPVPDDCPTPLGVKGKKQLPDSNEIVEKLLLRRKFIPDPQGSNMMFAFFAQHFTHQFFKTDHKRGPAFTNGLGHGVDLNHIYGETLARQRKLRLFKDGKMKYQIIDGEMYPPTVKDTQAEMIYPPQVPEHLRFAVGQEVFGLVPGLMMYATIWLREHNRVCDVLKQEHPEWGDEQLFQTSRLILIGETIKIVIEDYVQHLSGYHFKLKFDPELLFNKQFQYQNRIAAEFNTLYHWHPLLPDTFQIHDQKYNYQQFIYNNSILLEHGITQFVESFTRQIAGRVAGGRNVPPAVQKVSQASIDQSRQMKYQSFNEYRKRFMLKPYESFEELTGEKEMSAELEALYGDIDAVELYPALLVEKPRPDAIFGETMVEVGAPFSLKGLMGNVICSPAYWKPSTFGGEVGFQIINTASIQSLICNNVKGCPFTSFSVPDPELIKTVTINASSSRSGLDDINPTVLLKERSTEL

Row | IC50 [1] | IC50 [2] | IC50 [3] | Compound
1 | 1.4 µM | 115 µM | – | COc1ccc(-c2nc(N3N=C(c4ccc(F)cc4)CCC3=O)n(C)c(=O)c2C#N)cc1
2 | – | – | 0.044 µM | COC1CC(NC(=O)c2cc(Cc3n[nH]c(=O)c4ccccc34)ccc2F)C1 (stereo not drawn)
